These results are taken from US8529949B2, “Pharmaceutical tablets of crystalline type II aripiprazole” (Synthon BV, priority 2005, dated 2013).

For data set [1] the following is noted: cited from earlier work.
A short description of data set [2]: Hygroscopicity (water uptake) of crystalline aripiprazole forms. The format is physicochemical. The note with it: small particle population (d90 8-50 microns), unmilled.

Read-outs that look alike come from different tables or passages of the source.

As for `O=C1CCc2ccc(OCCCCN3CCN(c4cccc(Cl)c4Cl)CC3)cc2N1` [Anhydrous Form B, 7-[4-[4-(2,3-dichlorophenyl)-1-piperazinyl]butoxy]-3,4-dihydrocarbostyril], in data set [1] (in 24 hours, per WO 03/26659), the “water uptake (hygroscopicity)” value is given as “less than 0.4%”.

As for `O=C1CCc2ccc(OCCCCN3CCN(c4cccc(Cl)c4Cl)CC3)cc2N1` [Type I aripiprazole, 7-[4-[4-(2,3-dichlorophenyl)-1-piperazinyl]butoxy]-3,4-dihydrocarbostyril], the hygroscopicity entry in data set [1] (as taught by WO 03/26659) was “significantly hygroscopic”.

On to `O=C1CCc2ccc(OCCCCN3CCN(c4cccc(Cl)c4Cl)CC3)cc2N1` [aripiprazole Type II, 7-[4-[4-(2,3-dichlorophenyl)-1-piperazinyl]butoxy]-3,4-dihydrocarbostyril], for which the hygroscopicity entry in data set [2] was “not significantly hygroscopic and/or is non-hygroscopic”.
